Source: patent publication US7105573B2, “Methods and compositions for the treatment of alopecia and other disorders of the pilosebaceous apparatus” (Orentreich Foundation for the Advancement of Science, Inc., priority 2000, dated 2006)
Counter-ions that a name gives are not always drawn. Like-named read-outs stand apart in the source and are kept apart here. One block for each compound: values may come before it.

Columns and labels:
[1] = Skin irritation of metformin base and salts in 50% SDA / 2% butylene glycol vehicle; format: in vivo; details: applied in 50% SDA, 2% butylene glycol in water
[2] = Method: (§1) If more neutral solutions are required, a penetration enhancing agent should be used to help deliver the drug to the dermis. […] Some, like dimethylsulfoxide (DMSO), are applied to the skin for 10–15 minutes prior to administration of the drug, while others, such as myristylamine oxide (MAO), SEPA and N-methyl pyrrolidone (NMP), can be added to the inventive composition in the appropriate concentration before applying to the skin.
[3] = remark: listed apart in the source
Method: For production of the test materials described herein, it is dissolved in water to twice the desired final concentration, then mixed with an equal volume of a solution of 4% butylene glycol in special denatured alcohol (SDA) for a final concentration of 50% SDA and 2% butylene glycol. […] Preferred concentrations are about 0.8% to about 2.0%.
as §1
It is important to remove the salts that are produced during this process. Therefore, the mixture is lyophilized, and the dry powder reconstituted in absolute ethanol.

[4] = test system: hair loss in C57BL/6J Lep (ob) female mice; assay: Oral troglitazone ob/ob female mice study (Example 6); format: in vivo; details: 350 days; 0.2% troglitazone in diet; control 100%
Method: This study involved oral administration of troglitazone (Rezulin®) to C57BL/6J Lep (ob) female mice.
Non-alopecic female ob/ob mice (7 weeks at start of study) are maintained on a photoperiod of 12 h light:12 h dark. Food (Purina 5001 Meal diet or Purina 5001 with 0.2% troglitazone) and water (acidified pH 2.5) are provided ad libitum.
Troglitazone (Rezulin®) is purchased from Parke-Davis (Morris Plains, NJ) in tablet form. The entire tablet (including the coat) is crushed in a blender prior to being incorporated into the diet. The amount of troglitazone added to the diet is adjusted to account for the weight of the tablet and the actual amount of the drug (400 mg/tablet) incorporated into the tablet.
The progression of hair loss is monitored by the investigator on a weekly to biweekly basis. The dorsal hair coat is photographed on a monthly basis to chart the onset and/or progression of alopecia.

[5] = test system: skin of the hairless mouse; assay: Skin redness in hairless mouse, 11 days of treatment; format: in vivo; details: 50 μL, 2× per day
[6] = test system: obese (ob/ob -Thieller background) mouse; details: 240 mg/kg/d in drinking water for 4 weeks; cited from earlier work
[7] = test system: alopecic female ob/ob mice; assay: Topical biguanide / metformin hair growth in obese (ob/ob) mouse model (Example 3); format: in vivo
Method: When pharmaceutically acceptable salts of biguanide were applied in reasonable concentrations (e.g., about 0.5% to about 10%) in a suitable topical vehicle (e.g., solution, tincture, gel, lotion, cream or ointment) containing a suitable penetration enhancing agent (e.g., surfactant, DMSO, N-methyl pyrrolidone), the growth of hair was stimulated in the obese (ob/ob) mouse model.
Two alopecic female ob/ob mice were treated with 0.8% topical metformin for three months beginning at 13 months of age. Applications of 50 ul were made twice per day (except weekends) to the alopecic (intrascapular) site.

[8] = test system: hair loss in aged female obese (C57BL/6J-ob/ob) mice; assay: Oral metformin and hair loss in aged female obese mice (Example 1); format: in vivo
Method: The objective of the experiments in this Example is to examine the effects of the biguanide […] metformin on hair loss in aged female obese (C57BL/6J-ob/ob) mice. The hypothesis tested is that metformin, when administered in these mice at a relatively young age, will increase insulin sensitivity, thereby preventing or slowing the progression of hair loss.
Animals: Female C57BL/6J Lep , ob/ob. (homozygous) and C57BL/6J Lep <ob/+> (heterozygous) mice are purchased from the Jackson Laboratory (Bar Harbor, Me.). All animals are housed at a density of 2–3 animals per cage and are maintained on a photoperiod of 12 h light: 12 h dark. Food and water are provided ad libitum.
The dosage is adjusted each week to reflect changes in body weight. Since the animals are group housed, the adjustment is made based on the mean weight of the treatment group, rather than on an animal-to-animal basis. The water is changed twice per week. Periodically the concentration of the metformin in the drinking water is verified by HPLC.
Experimental groups: The ob/+ animals are not entered into the study until two weeks after the ob/ob mice. […] Thus, once the ob/+ are 7 weeks of age, they are entered in the study.
Parameters monitored: Body weight, food and water consumption are monitored twice per week. Blood samples are collected from the orbital sinus of unanesthesized mice at the baseline and on a monthly basis for the duration of the study. These blood collections are designed to monitor serum glucose and insulin levels. C-peptide and insulin-like growth factor 1 (IGF-1) are also monitored periodically throughout the study. Blood samples for C-peptide analysis are collected following an overnight fast. Selected animals are photographed throughout the study to document the slowing or progression of hair loss.

[9] = test system: age-dependent hair loss in female ob/ob (obese) mice; assay: Oral metformin hydrochloride and age-dependent hair loss in female ob/ob mice (Example 5); format: in vivo
Text: Twenty-one female C57BL/6J ob/ob mice were purchased from the Jackson Laboratory (Bar Harbour, Me.) at five weeks of age. […] Dosages were adjusted on a weekly basis to reflect changes observed in body weight. All animals were group housed and were allowed access to standard laboratory chow and water ad libitum. The progression of hair loss was documented throughout the study.

absorbed through skin [2]: 75%–88%
Structure (SMILES): CN(C)C(=N)NC(=N)N [Metformin base]
irritation to the skin [1]: significant irritation

Structure (SMILES): N=C(N)NC(=N)N [Biguanide, Biguanide (NH2C(═NH)NHC(═NH)NH2)]
long-term chemical stability in water [3]: limited long-term chemical stability in water | solubility in water [3]: water soluble

Structure (SMILES): Cc1c(C)c2c(c(C)c1O)CCC(C)(COc1ccc(CC3SC(=O)NC3=O)cc1)O2 (stereo not shown) [troglitazone]
animals exhibiting some degree of hair loss [4]: 60%

redness on the skin [5]: only mild, temporary redness
Structure (SMILES): CCCCCCCCCCC1COC(=O)N1 (stereo not shown) [SR-38, 4-decyloxazolidin-2-one]

absorbed through skin [2]: < 1% | penetration on addition of SR-38 to the formula [2]: similarly improved
Structure (SMILES): CN(C)C(=N)N=C(N)N.O=C(O)c1cc2ccccc2c(Cc2c(O)c(C(=O)O)cc3ccccc23)c1O [Metformin pamoate, metformin pamoate]
irritation to the skin [1]: no irritation

penetration of the applied metformin dose [2]: up to 20% | share of composition passing through the dermis [2]: over 90%
Structure (SMILES): CN(C)C(=N)N=C(N)N [metformin]
concentration of hepatocyte high and low affinity insulin receptors [6]: increase | hypoglycemic response to exogenous insulin [6]: did not alter | plasma insulin levels [6]: lowered | pigmentation at the alopecic site (onset of anagen) ([7]; 0.8% topical, 50 ul twice per day, after two months of treatment, two alopecic female ob/ob mice, 13 months of age at start): presence of pigmentation at the alopecic site | emergence of new hairs at the alopecic site ([7]; 0.8% topical, the week following two months of treatment): small hairs emerging from the skin | persistence of new hairs after withdrawal of treatment ([7]; observed for 6 weeks after the three-month treatment): new hairs remained intact | onset of hair loss ([8]; female ob/ob mice, 240 mg/kg/d in drinking water): delayed | hair loss in ob/+ mice ([8]; ob/+ (heterozygous) mice, 240 mg/kg p.o.): not observed | hair loss observed (% of animals affected) ([8]; ob/ob mice at 10 months of age (nearly 8 months of treatment), 240 mg/kg p.o., control 36%): 8%

penetration to the dermis as a function of pH [2]: improves as pH increases | absorbed through skin ([2]; 6 h): < 1% | percutaneous absorption (absorbed) ([2]; 6 h): <1%
Structure (SMILES): CN(C)C(=N)N=C(N)N [Metformin HCl, Metformin hydrochloride]
irritation to the skin [1]: no irritation | incidence of hair loss ([9]; 300 days of age, controls about 40%): about 20% | incidence of hair loss ([9]; 370 days of age, excluding animals with only possible thinning of the hair coat, controls greater than 60%): 30% | onset of hair loss ([9]; female ob/ob mice, 240 mg/kg/d in acid water): delayed | incidence of spontaneous skin condition (may resemble acanthosis nigricans or migratory ichthyosis) ([9]; relative to control animals, the majority of which were affected): markedly less incidence
